Measurements reported in PubChem BioAssay (NCI).
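96-well plates; 48 h exposure; 5 concentrations. Endpoints by linear interpolation between flanking doses. Not reached: highest tested concentration assigned. Abbreviation: GI50, concentration required for 50% inhibition of growth. TGI is the concentration that stops growth completely.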

Columns and labels:
Experiment in all cases: NCI tumour cell line growth inhibition, 48 h
[1] = system: UACC-257 melanoma
[2] = system: OVCAR-3 ovarian
[3] = system: ACHN renal
[4] = system: LOX IMVI melanoma
[5] = system: KM12 colon
[6] = system: HCT-116 colon
[7] = system: MCF7 breast
[8] = system: SF-268 CNS
[9] = system: 786-0 renal
[10] = system: HOP-92 NSCLC
[11] = system: NCI-H522 lung
[12] = system: SNB-19 CNS

Compound | TGI [1] [µM] | TGI [2] [µM] | TGI [3] [µM] | TGI [4] [µM] | TGI [5] [µM] | TGI [6] [µM] | TGI [7] [µM] | TGI [8] [µM] | TGI [9] [µM] | TGI [10] [µM] | TGI [11] [µM] | TGI [12] [µM] | GI50 [3] [µM] | GI50 [4] [µM] | GI50 [5] [µM] | GI50 [8] [µM] | GI50 [10] [µM] | GI50 [11] [µM]
O=C(Cc1ccccc1F)NC1=C(Cl)C(=O)c2ccccc2C1=O | 4.32 | 2.9 | 2.02 | 5.99 | 4.11 | 5.12 | 21.4 | 15.1 | 9.68 | 2.49 | 0.565 | 25.2 |  |  |  |  |  | 
CN(C)c1ccc(/C=C/c2ccc(S(N)(=O)=O)cc2)cc1 | > 100 | 49.8 | 33.6 | > 100 | > 100 | 67.2 | > 100 | > 100 | 35.4 | 36 | 25.6 | 44.9 | 13.6 | 18.7 | 8.28 | 7.16 | 16.6 | 6.88
CCOC(=O)NN(C(=O)OCC)C(C(=O)C1=CCCCC1)N(NC(=O)OCC)C(=O)OCC | > 100 | > 100 | > 100 | > 100 | > 100 | > 100 | > 100 | > 100 | > 100 | > 100 | > 100 | > 100 |  |  |  |  |  | 
CCCCCCCCCCCCOP(=O)(O)OP(=O)(O)OCC1OC(n2ccc(N)nc2=O)CC1O (centres undefined) | > 100 | > 100 | > 100 | > 100 | > 100 | > 100 | > 100 | > 100 | > 100 | > 100 | > 100 | > 100 |  |  |  |  |  | 
N#CC1(C#N)NC(c2ccccc2)C(C#N)(C#N)NC1c1ccccc1 (centres undefined) | > 100 | > 100 | > 100 | > 100 | > 100 | > 100 | > 100 | > 100 | > 100 | > 100 | > 100 | > 100 |  |  |  |  |  | 
CC1(C)[C@@H]2C[C@H]1[C@@H](Cc1cccc(C[C@H]3c4cc(-c5ccccn5)ncc4[C@H]4C[C@@H]3C4(C)C)c1)c1cc(-c3ccccn3)ncc12 | > 100 | > 100 | > 66.6 | > 100 | > 100 | > 47.6 | > 100 | > 100 | > 47.6 | 83.4 | > 70.8 | > 72.6 |  |  |  |  |  | 
COc1ccccc1Cc1ccc(C2C=CC3(CC(=O)C=C3C)C(=O)C2)o1 (centres undefined) | 68.9 | 23.5 | > 100 | 34.9 | > 100 | 89.6 | 34.4 | 64.9 | 41.9 | 75.6 | 37.4 | > 100 |  |  |  |  |  | 
COc1cc(C)c(/C=C2/N=C(c3ccccc3)OC2=O)c([N+](=O)[O-])c1OC | > 100 | > 100 | > 100 | > 100 | > 100 | > 100 | > 100 | > 100 | > 100 | > 100 | > 100 | > 100 |  |  |  |  |  | 
Cc1cc(Cl)nc2nc(Cl)c(N)cc12 | 3.55 | 3.27 | 18.4 | 3.63 | 17.8 | 5.92 | > 22.2 | 3.5 | 10.5 | 4.46 | 12 | 9.57 |  |  |  |  |  | 
c1cc(-c2ccc(-c3ccc(-c4ccc(-c5ccncc5)o4)cc3)o2)ccn1 | 29.6 | 63.8 | 64.6 | 42.8 | 32.2 | 29.6 | 38.7 | 38.1 | 30.7 | 83.7 | 31.7 | 39.7 |  |  |  |  |  | 
COc1cc2c(c(OC)c1OC)C(=O)[C@@H]1[C@H]2N1C(=O)NCCCl | > 100 | > 100 | > 100 | > 100 | > 100 | > 100 | > 100 | > 100 | > 100 | > 100 | > 100 | > 100 |  |  |  |  |  | 
Cc1ccc(C(=O)Nc2ccc(CP(=O)(O)O)cc2)cc1NC(=O)c1cccc(N)c1 | > 100 | > 100 | > 100 | > 100 | > 100 | > 100 | > 100 | > 100 | > 100 | > 100 | > 100 | > 100 |  |  |  |  |  | 
Cc1nc(SCC(=O)Nc2ccc(Cl)cc2)c2sc(=S)n(-c3ccccc3)c2n1 | > 10 | > 10 | > 10 | > 10 | > 10 | > 10 | > 10 | > 10 | > 10 | > 10 | > 10 | > 10 |  |  |  |  |  | 
NS(=O)(=O)c1nnc(NC(=O)C23CC4CC(CC(C4)C2)C3)s1 | > 100 | > 100 | > 100 | > 100 | > 100 | > 100 | > 100 | > 100 | > 100 | > 100 | > 100 | > 100 |  |  |  |  |  | 
